Reference: PubChem BioAssay (NCI)
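96-well plates; 48 h exposure; 5 concentrations. Endpoints by linear interpolation between flanking doses. Not reached: highest tested concentration assigned. TGI: concentration producing complete growth inhibition.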

system: SNB-75 CNS; assay: DTP human tumour cell line panel, 48 h

Structure (SMILES) | TGI
CCCCCCCCCCCCCC(=O)OC1C(O)C(CO)OC(OC)C1NC(=O)N(CCCl)N=O (stereo unspecified) | > 100 µM

system: A498 renal; assay: DTP human tumour cell line panel, 48 h

Structure (SMILES) | TGI
COC(=O)/C(=N\NC(=O)c1ccccc1O)C(C#N)c1ccccc1 (stereo unspecified) | > 48.4 µM
O=S1(=O)OCCOS(=O)(=O)C1(Br)Cc1ccccc1 | > 100 µM
C=CCSc1ncnc2c1ncn2C1OC(CO)C(O)C1O (stereo unspecified) | > 100 µM

system: COLO 205 colon; assay: DTP human tumour cell line panel, 48 h

Structure (SMILES) | TGI
COC(=O)/C(=N\NC(=O)c1ccccc1O)C(C#N)c1ccccc1 (stereo unspecified) | > 50 µM
O=S1(=O)OCCOS(=O)(=O)C1(Br)Cc1ccccc1 | > 100 µM
C=CCSc1ncnc2c1ncn2C1OC(CO)C(O)C1O (stereo unspecified) | > 100 µM
CC1CCC2(OCCO2)[C@]2(C)CC(O)C(=O)C=C12 (stereo partly specified) | > 100 µM
CCCCCCCCCCCCCC(=O)OC1C(O)C(CO)OC(OC)C1NC(=O)N(CCCl)N=O (stereo unspecified) | > 100 µM

system: UO-31 renal; assay: DTP human tumour cell line panel, 48 h

Structure (SMILES) | TGI
COC(=O)/C(=N\NC(=O)c1ccccc1O)C(C#N)c1ccccc1 (stereo unspecified) | 37.6 µM
O=S1(=O)OCCOS(=O)(=O)C1(Br)Cc1ccccc1 | > 100 µM
C=CCSc1ncnc2c1ncn2C1OC(CO)C(O)C1O (stereo unspecified) | > 100 µM
CC1CCC2(OCCO2)[C@]2(C)CC(O)C(=O)C=C12 (stereo partly specified) | > 100 µM
CCCCCCCCCCCCCC(=O)OC1C(O)C(CO)OC(OC)C1NC(=O)N(CCCl)N=O (stereo unspecified) | > 100 µM

system: M19-MEL melanoma; assay: DTP human tumour cell line panel, 48 h

Structure (SMILES) | TGI
COC(=O)/C(=N\NC(=O)c1ccccc1O)C(C#N)c1ccccc1 (stereo unspecified) | > 50 µM
O=S1(=O)OCCOS(=O)(=O)C1(Br)Cc1ccccc1 | > 100 µM
C=CCSc1ncnc2c1ncn2C1OC(CO)C(O)C1O (stereo unspecified) | > 100 µM
CC1CCC2(OCCO2)[C@]2(C)CC(O)C(=O)C=C12 (stereo partly specified) | > 100 µM
CCCCCCCCCCCCCC(=O)OC1C(O)C(CO)OC(OC)C1NC(=O)N(CCCl)N=O (stereo unspecified) | > 100 µM

system: NCI-H23 lung; assay: DTP human tumour cell line panel, 48 h

Structure (SMILES) | TGI
COC(=O)/C(=N\NC(=O)c1ccccc1O)C(C#N)c1ccccc1 (stereo unspecified) | > 40.7 µM
O=S1(=O)OCCOS(=O)(=O)C1(Br)Cc1ccccc1 | > 100 µM
C=CCSc1ncnc2c1ncn2C1OC(CO)C(O)C1O (stereo unspecified) | > 100 µM
CC1CCC2(OCCO2)[C@]2(C)CC(O)C(=O)C=C12 (stereo partly specified) | > 100 µM
CCCCCCCCCCCCCC(=O)OC1C(O)C(CO)OC(OC)C1NC(=O)N(CCCl)N=O (stereo unspecified) | > 100 µM

system: UACC-257 melanoma; assay: DTP human tumour cell line panel, 48 h

Structure (SMILES) | TGI
COC(=O)/C(=N\NC(=O)c1ccccc1O)C(C#N)c1ccccc1 (stereo unspecified) | > 50 µM
O=S1(=O)OCCOS(=O)(=O)C1(Br)Cc1ccccc1 | > 100 µM
C=CCSc1ncnc2c1ncn2C1OC(CO)C(O)C1O (stereo unspecified) | > 100 µM
CC1CCC2(OCCO2)[C@]2(C)CC(O)C(=O)C=C12 (stereo partly specified) | > 100 µM
CCCCCCCCCCCCCC(=O)OC1C(O)C(CO)OC(OC)C1NC(=O)N(CCCl)N=O (stereo unspecified) | 86.8 µM

system: U251 CNS; assay: DTP human tumour cell line panel, 48 h

Structure (SMILES) | TGI
COC(=O)/C(=N\NC(=O)c1ccccc1O)C(C#N)c1ccccc1 (stereo unspecified) | > 50 µM
O=S1(=O)OCCOS(=O)(=O)C1(Br)Cc1ccccc1 | > 100 µM
C=CCSc1ncnc2c1ncn2C1OC(CO)C(O)C1O (stereo unspecified) | > 100 µM
CC1CCC2(OCCO2)[C@]2(C)CC(O)C(=O)C=C12 (stereo partly specified) | > 100 µM
CCCCCCCCCCCCCC(=O)OC1C(O)C(CO)OC(OC)C1NC(=O)N(CCCl)N=O (stereo unspecified) | > 100 µM

system: SNB-19 CNS; assay: DTP human tumour cell line panel, 48 h

Structure (SMILES) | TGI
COC(=O)/C(=N\NC(=O)c1ccccc1O)C(C#N)c1ccccc1 (stereo unspecified) | > 50 µM
O=S1(=O)OCCOS(=O)(=O)C1(Br)Cc1ccccc1 | > 100 µM
C=CCSc1ncnc2c1ncn2C1OC(CO)C(O)C1O (stereo unspecified) | > 100 µM
CC1CCC2(OCCO2)[C@]2(C)CC(O)C(=O)C=C12 (stereo partly specified) | > 100 µM
CCCCCCCCCCCCCC(=O)OC1C(O)C(CO)OC(OC)C1NC(=O)N(CCCl)N=O (stereo unspecified) | > 100 µM

system: HCC-2998 colon; assay: DTP human tumour cell line panel, 48 h

Structure (SMILES) | TGI
COC(=O)/C(=N\NC(=O)c1ccccc1O)C(C#N)c1ccccc1 (stereo unspecified) | > 50 µM
O=S1(=O)OCCOS(=O)(=O)C1(Br)Cc1ccccc1 | > 100 µM
C=CCSc1ncnc2c1ncn2C1OC(CO)C(O)C1O (stereo unspecified) | > 100 µM
CC1CCC2(OCCO2)[C@]2(C)CC(O)C(=O)C=C12 (stereo partly specified) | > 100 µM
CCCCCCCCCCCCCC(=O)OC1C(O)C(CO)OC(OC)C1NC(=O)N(CCCl)N=O (stereo unspecified) | > 100 µM

system: XF 498 CNS; assay: DTP human tumour cell line panel, 48 h

Structure (SMILES) | TGI
COC(=O)/C(=N\NC(=O)c1ccccc1O)C(C#N)c1ccccc1 (stereo unspecified) | > 50 µM
O=S1(=O)OCCOS(=O)(=O)C1(Br)Cc1ccccc1 | > 100 µM
C=CCSc1ncnc2c1ncn2C1OC(CO)C(O)C1O (stereo unspecified) | > 100 µM
CC1CCC2(OCCO2)[C@]2(C)CC(O)C(=O)C=C12 (stereo partly specified) | > 100 µM
CCCCCCCCCCCCCC(=O)OC1C(O)C(CO)OC(OC)C1NC(=O)N(CCCl)N=O (stereo unspecified) | > 100 µM

system: SK-MEL-5 melanoma; assay: DTP human tumour cell line panel, 48 h

Structure (SMILES) | TGI
COC(=O)/C(=N\NC(=O)c1ccccc1O)C(C#N)c1ccccc1 (stereo unspecified) | > 50 µM
O=S1(=O)OCCOS(=O)(=O)C1(Br)Cc1ccccc1 | > 100 µM
C=CCSc1ncnc2c1ncn2C1OC(CO)C(O)C1O (stereo unspecified) | > 100 µM
CC1CCC2(OCCO2)[C@]2(C)CC(O)C(=O)C=C12 (stereo partly specified) | > 100 µM
CCCCCCCCCCCCCC(=O)OC1C(O)C(CO)OC(OC)C1NC(=O)N(CCCl)N=O (stereo unspecified) | > 100 µM

system: CCRF-CEM leukemia; assay: DTP human tumour cell line panel, 48 h

Structure (SMILES) | TGI
COC(=O)/C(=N\NC(=O)c1ccccc1O)C(C#N)c1ccccc1 (stereo unspecified) | > 50 µM
O=S1(=O)OCCOS(=O)(=O)C1(Br)Cc1ccccc1 | > 100 µM
C=CCSc1ncnc2c1ncn2C1OC(CO)C(O)C1O (stereo unspecified) | > 100 µM
CC1CCC2(OCCO2)[C@]2(C)CC(O)C(=O)C=C12 (stereo partly specified) | > 100 µM

system: MOLT-4 leukemia; assay: DTP human tumour cell line panel, 48 h

Structure (SMILES) | TGI
COC(=O)/C(=N\NC(=O)c1ccccc1O)C(C#N)c1ccccc1 (stereo unspecified) | > 50 µM
O=S1(=O)OCCOS(=O)(=O)C1(Br)Cc1ccccc1 | > 100 µM
C=CCSc1ncnc2c1ncn2C1OC(CO)C(O)C1O (stereo unspecified) | > 100 µM
CC1CCC2(OCCO2)[C@]2(C)CC(O)C(=O)C=C12 (stereo partly specified) | > 100 µM
CCCCCCCCCCCCCC(=O)OC1C(O)C(CO)OC(OC)C1NC(=O)N(CCCl)N=O (stereo unspecified) | 59.8 µM

system: SNB-78 CNS; assay: DTP human tumour cell line panel, 48 h

Structure (SMILES) | TGI
COC(=O)/C(=N\NC(=O)c1ccccc1O)C(C#N)c1ccccc1 (stereo unspecified) | > 50 µM
O=S1(=O)OCCOS(=O)(=O)C1(Br)Cc1ccccc1 | > 100 µM
C=CCSc1ncnc2c1ncn2C1OC(CO)C(O)C1O (stereo unspecified) | > 100 µM
